From patent US20230097157A1, “Bicyclic Pyridin-2-one and pyrimidin-4-one Derivatives Useful As a Factor XIa Inhibitors” (Janssen Pharmaceutica NV, priority 2021, published 2023) come the findings set out here.

As usually defined, the IC50 is the concentration needed to halve the response being measured.

The target in one test is human plasma kallikrein (Homo sapiens, UniProt P03952). The test can be described thus: Kallikrein inhibition assay (FLINT) utilizing a quenched AMC peptide substrate Z-Gly-Pro-Arg-AMC. Type of test: biochemical. The settings on record: kinetic (KIN) reads, read-out: Kallikrein KIN Inh IC50. Summed up: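 Human plasma kallikrein (2 nM final) pre-incubated 30 min with compound (11-point 3-fold series, top 1 μM, 2% DMSO), then 50 μM Z-Gly-Pro-Arg-AMC added. Buffer 50 mM Tris pH 7.5, 100 mM NaCl, 5 mM CaCl2, BSA, CHAPS. AMC fluorescence (340/440 nm) read kinetically over 30 min at room temperature, IC50 by 4-parameter logistic fit.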

The target in the next test is Factor XIa (Homo sapiens, UniProt P03951). The test can be described thus: Factor XIa inhibition assay (FLINT) utilizing a fluorophore-quencher pair peptide substrate 5Fam-[…]-K5Tamra. Type of test: biochemical. Conditions: kinetic (KIN) reads, read-out: FXIa KIN Inh IC50. The essentials: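 FXIa was preincubated with compound for 30 min at room temperature in Tris pH 7.5 buffer containing CaCl2, BSA and CHAPS, then reacted with 15 μM quenched 5Fam/Tamra peptide substrate. Fluorescence (485/520 nm) was read kinetically every 5 min for 30 min.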

Like-named read-outs stand apart in the source and are kept apart here.

human plasma kallikrein, sequence (P03952 391-638 limits assumed): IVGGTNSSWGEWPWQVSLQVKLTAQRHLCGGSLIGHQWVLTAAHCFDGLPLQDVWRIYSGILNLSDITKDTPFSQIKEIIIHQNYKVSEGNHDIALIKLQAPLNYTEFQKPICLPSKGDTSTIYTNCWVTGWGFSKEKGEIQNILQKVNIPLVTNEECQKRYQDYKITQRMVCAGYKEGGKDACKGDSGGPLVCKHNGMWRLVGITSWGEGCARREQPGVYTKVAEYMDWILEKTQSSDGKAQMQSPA
human plasma kallikrein, sequence (P03952 20-390 partner limits assumed): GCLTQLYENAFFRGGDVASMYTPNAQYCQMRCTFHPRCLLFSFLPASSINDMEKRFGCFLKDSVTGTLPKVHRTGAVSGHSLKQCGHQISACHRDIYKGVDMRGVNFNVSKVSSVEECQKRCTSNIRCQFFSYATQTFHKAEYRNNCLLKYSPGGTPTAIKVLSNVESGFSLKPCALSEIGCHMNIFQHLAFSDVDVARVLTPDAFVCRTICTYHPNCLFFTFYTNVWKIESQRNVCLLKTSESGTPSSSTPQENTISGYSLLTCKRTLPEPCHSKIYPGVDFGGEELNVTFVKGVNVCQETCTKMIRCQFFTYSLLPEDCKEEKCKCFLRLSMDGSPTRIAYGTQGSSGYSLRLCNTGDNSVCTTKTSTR
Factor XIa, sequence (P03951 388-625 limits assumed): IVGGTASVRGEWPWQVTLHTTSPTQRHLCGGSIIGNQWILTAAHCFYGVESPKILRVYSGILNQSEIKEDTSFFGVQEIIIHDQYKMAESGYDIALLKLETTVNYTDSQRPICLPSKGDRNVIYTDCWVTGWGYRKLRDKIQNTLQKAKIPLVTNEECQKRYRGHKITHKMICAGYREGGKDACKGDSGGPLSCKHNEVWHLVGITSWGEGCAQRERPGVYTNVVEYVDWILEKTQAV
Factor XIa, sequence (P03951 19-387 partner limits assumed): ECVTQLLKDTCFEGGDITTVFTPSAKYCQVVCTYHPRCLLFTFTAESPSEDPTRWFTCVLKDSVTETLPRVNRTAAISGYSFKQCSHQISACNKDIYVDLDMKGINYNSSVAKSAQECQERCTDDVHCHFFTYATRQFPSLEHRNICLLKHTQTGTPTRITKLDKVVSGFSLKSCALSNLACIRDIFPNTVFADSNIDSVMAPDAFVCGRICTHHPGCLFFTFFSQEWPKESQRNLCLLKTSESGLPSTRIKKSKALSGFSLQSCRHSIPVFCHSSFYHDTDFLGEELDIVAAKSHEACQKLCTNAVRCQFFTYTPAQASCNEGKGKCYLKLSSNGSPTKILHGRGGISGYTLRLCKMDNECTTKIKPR

On to `CC1C[C@@H](c2nc(-c3cnc(N)cn3)c[nH]2)n2c1nc(-c1c(-n3cc(C(F)(F)F)nn3)ccc(Cl)c1F)cc2=O` (stereo partly drawn) [Example 80, (6S)-6-(4-(5-aminopyrazin-2-yl)-1H-imidazol-2-yl)-2-(3-chloro-2-fluoro-6-(4-(trifluoromethyl)-1H-1,2,3-triazol-1-yl)phenyl)-8-methyl-7,8-dihydropyrrolo[1,2-a]pyrimidin-4(6H)-one], for which the IC50 is around 236 nM on human plasma kallikrein (values in nM) and 4.4 nM at Factor XIa (values in nM).
The corresponding values for `Nc1nsc2cc(-c3cnc([C@@H]4CC5(CC5)c5nc(-c6c(-n7cnnn7)ccc(Cl)c6F)cc(=O)n54)[nH]3)ccc12` [Example 81, (S)-6′-(5-(3-Aminobenzo[d]isothiazol-6-yl)-1H-imidazol-2-yl)-2′-(3-chloro-2-fluoro-6-(1H-tetrazol-1-yl)phenyl)-6′,7′-dihydro-4′H-spiro[cyclopropane-1,8′-pyrrolo[1,2-a]pyrimidin]-4′-one] are 0.9 nM and 0.6 nM.
Turning to `Nc1nsc2cc(-c3cnc([C@H]4CC5(CC5)c5nc(-c6c(-n7cnnn7)ccc(Cl)c6F)cc(=O)n54)[nH]3)ccc12` [Example 82, (R)-6′-(5-(3-Aminobenzo[d]isothiazol-6-yl)-1H-imidazol-2-yl)-2′-(3-chloro-2-fluoro-6-(1H-tetrazol-1-yl)phenyl)-6′,7′-dihydro-4′H-spiro[cyclopropane-1,8′-pyrrolo[1,2-a]pyrimidin]-4′-one], the IC50 on human plasma kallikrein (values in nM) turned out to be 142 nM; at Factor XIa (values in nM), 53.8 nM.
As for `C[C@H]1C[C@@H](c2nc(-c3ncc(N)nc3Cl)c[nH]2)n2c1nc(-c1c(-n3cnnn3)ccc(Cl)c1F)cc2=O` [Example 93, (6S,8S)-6-(4-(5-Amino-3-chloropyrazin-2-yl)-1H-imidazol-2-yl)-2-(3-chloro-2-fluoro-6-(1H-tetrazol-1-yl)phenyl)-8-methyl-7,8-dihydropyrrolo[1,2-a]pyrimidin-4(6H)-one], the results for the IC50 at human plasma kallikrein (values in nM) and on Factor XIa (values in nM) were 20.8 nM and 0.5 nM, respectively.
The corresponding values for `Cc1nc(N)cnc1-c1cnc([C@@H]2CC(C)c3nc(-c4c(-n5cnnn5)ccc(Cl)c4F)cc(=O)n32)[nH]1` (stereo partly drawn) [Example 95, (6S)-6-(5-(5-Amino-3-methylpyrazin-2-yl)-1H-imidazol-2-yl)-2-(3-chloro-2-fluoro-6-(1H-tetrazol-1-yl)phenyl)-8-methyl-7,8-dihydropyrrolo[1,2-a]pyrimidin-4(6H)-one] are 71.7 nM and 5.3 nM.
Regarding `Cc1nc(N)cnc1-c1cnc([C@H]2CC(C)c3nc(-c4c(-n5cnnn5)ccc(Cl)c4F)cc(=O)n32)[nH]1` (stereo partly drawn) [Example 96, (6R)-6-(5-(5-Amino-3-methylpyrazin-2-yl)-1H-imidazol-2-yl)-2-(3-chloro-2-fluoro-6-(1H-tetrazol-1-yl)phenyl)-8-methyl-7,8-dihydropyrrolo[1,2-a]pyrimidin-4(6H)-one], the IC50 at human plasma kallikrein (unit μM) was above 1000 nM; at Factor XIa (values in nM), above 100 nM.
In the case of `Cc1nc(N)sc1-c1cnc([C@@H]2CC3(CC3)c3nc(-c4c(-n5cnnn5)ccc(Cl)c4F)cc(=O)n32)[nH]1` [Example 131, (S)-6′-(5-(2-Amino-4-methylthiazol-5-yl)-1H-imidazol-2-yl)-2′-(3-chloro-2-fluoro-6-(1H-tetrazol-1-yl)phenyl)-6′,7′-dihydro-4′H-spiro[cyclopropane-1,8′-pyrrolo[1,2-a]pyrimidin]-4′-one], the IC50 on human plasma kallikrein (values in nM) is 669 nM; on Factor XIa (values in nM), 92.2 nM.
Take `Cc1nc(N)sc1-c1cnc([C@H]2CC3(CC3)c3nc(-c4c(-n5cnnn5)ccc(Cl)c4F)cc(=O)n32)[nH]1` [Example 132, (R)-6′-(5-(2-Amino-4-methylthiazol-5-yl)-1H-imidazol-2-yl)-2′-(3-chloro-2-fluoro-6-(1H-tetrazol-1-yl)phenyl)-6′,7′-dihydro-4′H-spiro[cyclopropane-1,8′-pyrrolo[1,2-a]pyrimidin]-4′-one]: the IC50 on human plasma kallikrein (unit μM) and at Factor XIa (unit μM) was above 10000 nM each time.
With `Nc1ccc(-c2cnc([C@H]3CC4(CC4)c4nc(-c5c(-n6cnnn6)ccc(Cl)c5F)cc(=O)n43)[nH]2)c(F)n1` [Example 133, (R)-6′-(5-(6-Amino-2-fluoropyridin-3-yl)-1H-imidazol-2-yl)-2′-(3-chloro-2-fluoro-6-(1H-tetrazol-1-yl)phenyl)-6′,7′-dihydro-4′H-spiro[cyclopropane-1,8′-pyrrolo[1,2-a]pyrimidin]-4′-one], the IC50 came to 4000 nM at human plasma kallikrein (unit μM) and 231 nM on Factor XIa (values in nM).
In the case of `Nc1ccc(-c2cnc([C@@H]3CC4(CC4)c4nc(-c5c(-n6cnnn6)ccc(Cl)c5F)cc(=O)n43)[nH]2)c(F)n1` [Example 134, (S)-6′-(5-(6-Amino-2-fluoropyridin-3-yl)-1H-imidazol-2-yl)-2′-(3-chloro-2-fluoro-6-(1H-tetrazol-1-yl)phenyl)-6′,7′-dihydro-4′H-spiro[cyclopropane-1,8′-pyrrolo[1,2-a]pyrimidin]-4′-one], the figures for the IC50 at human plasma kallikrein (values in nM) and at Factor XIa (values in nM) were 16.8 nM and 1.2 nM, respectively.
On to `CCO[C@@H]1C[C@@H](c2ncc(-c3ccc(N)nc3F)[nH]2)n2c1cc(-c1c(-n3cnnn3)ccc(Cl)c1F)cc2=O` [Example 139, (1R,3S)-3-(5-(6-Amino-2-fluoropyridin-3-yl)-1H-imidazol-2-yl)-7-(3-chloro-2-fluoro-6-(1H-tetrazol-1-yl)phenyl)-1-ethoxy-2,3-dihydroindolizin-5(1H)-one], for which the results for the IC50 at human plasma kallikrein (values in nM) and at Factor XIa (values in nM) were 18 nM and 0.3 nM, respectively.
The corresponding values for `C[C@H]1C[C@H](c2ncc(-c3ccc(N)nc3Cl)[nH]2)n2c1nc(-c1c(-n3cnnn3)ccc(Cl)c1F)cc2=O` [Example 141] are 13.5 nM and 0.5 nM.
With `COC(=O)Nc1ccc(-c2cnc([C@@H]3C[C@@H](OC)c4cc(-c5c(-n6cnnn6)ccc(Cl)c5F)cc(=O)n43)[nH]2)cc1` [Example 152, Methyl (4-(2-((1R,3S)-7-(3-chloro-2-fluoro-6-(1H-tetrazol-1-yl)phenyl)-1-methoxy-5-oxo-1,2,3,5-tetrahydroindolizin-3-yl)-1H-imidazol-5-yl)phenyl)carbamate], the IC50 stood at 1.5 nM on human plasma kallikrein (values in nM) and 0.3 nM at Factor XIa (values in nM).
